Test [1] addresses intracellular GCN2 (phosphorylation of the GCN2 substrate eIF2α) (Homo sapiens, UniProt Q9P2K8). Kind of test: GCN2 cellular inhibition assay (AlphaScreen SureFire P-eIF2α Ser51, borrelidin-treated U2OS cells). In kind it is cell-based. The essentials:
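Borrelidin at 10 μM is added to U2OS cells immediately after compound (4-fold dilution series, 40 μM top final) for 1 h at 37 °C. Phosphorylated eIF2α Ser51 in lysates is quantified by AlphaScreen and expressed as percent inhibition against borrelidin-stimulated controls.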
On the technique in general: Bead proximity is the source of the signal in Alpha formats.

A further test addresses GCN2 kinase (Homo sapiens, UniProt Q9P2K8). Kind of test: GCN2 enzyme inhibition assay (Transcreener ADP2 fluorescence polarization). To be noted: 280 μM ATP. In kind it is biochemical. The essentials: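 ADP formation read by Transcreener FP after a 1 h, 25 °C kinase reaction containing 280 μM ATP, 200 μM (RS)7 substrate and 4 nM GCN2, pH 7.5 Tris buffer. Compounds (0–8 μM final) were added 10 min before ATP. Percent inhibition gave IC50 and apparent Ki via tight-binding fit.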
In general terms: Fluorescence polarisation rises when a labelled molecule tumbles more slowly, as on binding a larger partner.

[2] abbreviates: compounds of Formula II, biomarker assay, phosphorylated eIF2α Ser51 in borrelidin-treated U2OS cells.
[3] abbreviates: compounds of Formula II, 4 nM GCN2 kinase.
The mark [4] stands for this setting: compounds of Formula IV, biomarker assay, phosphorylated eIF2α Ser51 in borrelidin-treated U2OS cells.
The mark [5] stands for this setting: Enzyme activity for compounds of Formula IV, Ki(app), 25° C.

Where two headings read alike, the source gives them in different places.

In general, IC50 refers to the concentration that gives 50% inhibition.

Sequence of intracellular GCN2 (phosphorylation of the GCN2 substrate eIF2α) (Q9P2K8 whole entry): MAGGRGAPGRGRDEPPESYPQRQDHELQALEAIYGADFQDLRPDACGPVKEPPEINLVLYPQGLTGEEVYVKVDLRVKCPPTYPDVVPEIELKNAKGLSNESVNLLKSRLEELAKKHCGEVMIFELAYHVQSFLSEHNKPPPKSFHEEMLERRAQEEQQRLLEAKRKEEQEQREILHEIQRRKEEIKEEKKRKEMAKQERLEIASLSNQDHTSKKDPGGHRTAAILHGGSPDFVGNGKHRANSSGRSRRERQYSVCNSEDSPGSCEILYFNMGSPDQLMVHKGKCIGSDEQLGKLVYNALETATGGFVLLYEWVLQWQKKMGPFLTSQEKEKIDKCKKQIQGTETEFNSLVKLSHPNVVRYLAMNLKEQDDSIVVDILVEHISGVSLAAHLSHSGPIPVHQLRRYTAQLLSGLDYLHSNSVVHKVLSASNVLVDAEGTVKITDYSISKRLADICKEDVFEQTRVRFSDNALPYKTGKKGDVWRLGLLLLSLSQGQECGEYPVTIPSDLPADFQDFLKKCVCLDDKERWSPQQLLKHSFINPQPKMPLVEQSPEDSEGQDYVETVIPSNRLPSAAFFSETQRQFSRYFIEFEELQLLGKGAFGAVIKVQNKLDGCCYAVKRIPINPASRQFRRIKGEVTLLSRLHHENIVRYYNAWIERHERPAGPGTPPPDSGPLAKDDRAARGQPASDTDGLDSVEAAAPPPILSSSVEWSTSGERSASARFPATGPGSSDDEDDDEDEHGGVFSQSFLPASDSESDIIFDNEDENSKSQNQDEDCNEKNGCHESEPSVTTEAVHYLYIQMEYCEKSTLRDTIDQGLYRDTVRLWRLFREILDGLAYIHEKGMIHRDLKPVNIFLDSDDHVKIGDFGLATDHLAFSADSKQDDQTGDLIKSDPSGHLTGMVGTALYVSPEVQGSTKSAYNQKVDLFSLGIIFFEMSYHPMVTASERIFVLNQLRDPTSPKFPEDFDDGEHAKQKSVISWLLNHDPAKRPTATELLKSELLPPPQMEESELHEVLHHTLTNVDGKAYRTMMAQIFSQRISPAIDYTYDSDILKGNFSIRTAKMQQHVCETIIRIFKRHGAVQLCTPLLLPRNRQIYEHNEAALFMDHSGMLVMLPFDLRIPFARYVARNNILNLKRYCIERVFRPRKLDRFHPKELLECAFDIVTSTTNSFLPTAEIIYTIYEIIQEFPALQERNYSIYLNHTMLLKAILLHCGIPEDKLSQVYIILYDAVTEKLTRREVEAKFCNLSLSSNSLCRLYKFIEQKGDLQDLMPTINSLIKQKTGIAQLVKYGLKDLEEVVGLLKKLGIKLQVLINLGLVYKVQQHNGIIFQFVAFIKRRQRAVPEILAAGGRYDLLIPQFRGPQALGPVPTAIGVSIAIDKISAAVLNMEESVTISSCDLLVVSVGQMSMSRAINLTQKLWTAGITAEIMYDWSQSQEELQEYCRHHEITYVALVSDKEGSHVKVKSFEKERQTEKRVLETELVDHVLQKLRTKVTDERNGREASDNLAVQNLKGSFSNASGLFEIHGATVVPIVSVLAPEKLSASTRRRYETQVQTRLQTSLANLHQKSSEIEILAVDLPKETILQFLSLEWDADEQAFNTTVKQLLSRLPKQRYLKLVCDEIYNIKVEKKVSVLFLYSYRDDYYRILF
Sequence of GCN2 kinase (Q9P2K8 whole entry): as above

Compound `CS(=O)(=O)NCC1CCCN(c2cc(-c3cnc4ccc(C(F)F)nn34)cc(F)n2)C1` (stereo not drawn) [II-122, N-((1-(4-(6-(Difluoromethyl)imidazo[1,2-b]pyridazin-3-yl)-6-fluoropyridin-2-yl)piperidin-3-yl)methyl)methanesulfonamide] showed an IC50 in test [1] (setting [2]) of 500 to 5000 nM. This compound returned a Ki at GCN2 kinase (setting [3]) below 10 nM.
For `CS(=O)(=O)NC[C@H]1CCCN(c2cc(-c3cnc4ccc(C(F)F)nn34)cc(O)n2)C1` [II-111, (S)—N-((1-(4-(6-(Difluoromethyl)imidazo[1,2-b]pyridazin-3-yl)-6-oxo-1,6-dihydropyridin-2-yl)piperidin-3-yl)methyl)methanesulfonamide], in that order: 500 to 5000 nM and below 10 nM.
In the case of `OCC1CCCN(c2cc(-c3cnc4ccc(C(F)F)nn34)ccn2)C1` (stereo not drawn) [II-162, (1-(4-(6-(Difluoromethyl)imidazo[1,2-b]pyridazin-3-yl)pyridin-2-yl)piperidin-3-yl)methanol], the IC50 in test [1] (setting [2]) fell in the range of 500 to 5000 nM. At GCN2 kinase (setting [3]), this compound yielded a Ki of 10 to 1000 nM.
The compound `Cn1nc(C2CCCN(c3ccnc(-c4cnc5cnc(C(F)F)cn45)n3)C2)cc1O` (stereo not drawn) [IV-113, 3-(1-(2-(6-(Difluoromethyl)imidazo[1,2-a]pyrazin-3-yl)pyrimidin-4-yl)piperidin-3-yl)-1-methyl-1H-pyrazol-5-ol] had an IC50 in test [1] (setting [4]) above 5000 nM. Also, the Ki on GCN2 kinase (setting [5]) fell in the range of 100 to 1000 nM.
In test [1] (setting [2]), `CS(=O)(=O)NC[C@H]1CCCN(c2cc(-c3cnc4ccc(C(F)F)nn34)ccn2)C1` [II-154, (S)—N-((1-(4-(6-(Difluoromethyl)imidazo[1,2-b]pyridazin-3-yl)pyridin-2-yl)piperidin-3-yl)methyl)methanesulfonamide] came in with an IC50 below 500 nM. This compound registered a Ki at GCN2 kinase (setting [3]) below 10 nM.
In the case of `CC(=O)N1CCN(c2cc(-c3cnn4ccc(C(F)(F)F)nc34)ccn2)CC1`, the IC50 in test [1] (compounds of Formula III, U2OS cells, 10 μM borrelidin, 1 h, read-out: GCN2 Biomarker (IC50)) was above 5000 nM. The compound further returned a Ki on GCN2 kinase (compounds of Formula III, 4 nM GCN2 kinase) of 10 to 1000 nM.
As for `Brc1cn2c(-c3nccc(N4CCCC(c5c[nH]cn5)C4)n3)cnc2cn1` (stereo not drawn) [IV-363, 3-(4-(3-(1H-Imidazol-4-yl)piperidin-1-yl)pyrimidin-2-yl)-6-bromoimidazo[1,2-a]pyrazine], the IC50 in test [1] (setting [4]) was below 500 nM. Also, the Ki on GCN2 kinase (setting [5]) is below 10 nM.
`CC1CN(C)C(CNS(C)(=O)=O)CN1c1cc(-c2cnc3ccc(C(F)F)nn23)ncn1` (stereo not drawn) [II-423, N-((4-(6-(6-(Difluoromethyl)imidazo[1,2-b]pyridazin-3-yl)pyrimidin-4-yl)-1,5-dimethylpiperazin-2-yl)methyl)methanesulfonamide]: in test [1] (setting [2]), the IC50 was above 5000 nM. The Ki at GCN2 kinase (setting [3]) fell in the range of 10 to 1000 nM.
Turning to `O=C1NCC2CN(c3ccnc(-c4cnc5cnc(C(F)(F)F)cn45)n3)CCN12` (stereo not drawn) [IV-480, 7-(2-(6-(Trifluoromethyl)imidazo[1,2-a]pyrazin-3-yl)pyrimidin-4-yl)hexahydroimidazo[1,5-a]pyrazin-3(2H)-one], in test [1] (setting [4]), the IC50 is above 5000 nM. For the same compound, the Ki at GCN2 kinase (setting [5]) is 100 to 1000 nM.
In test [1] (setting [2]), `O=C1NCC2CCN(c3cc(-c4cnc5ccc(C(F)F)nn45)ncn3)CC12` (stereo not drawn) [II-200, 5-(6-(6-(Difluoromethyl)imidazo[1,2-b]pyridazin-3-yl)pyrimidin-4-yl)octahydro-3H-pyrrolo[3,4-c]pyridin-3-one] yielded an IC50 above 5000 nM. Also, the Ki on GCN2 kinase (setting [3]) is 10 to 1000 nM.
In test [1] (setting [2]), `CNS(=O)(=O)NCC1CCCN(c2cc(-c3cnc4ccc(C(F)F)nn34)ncn2)C1` (stereo not drawn) [II-385, 1-((1-(6-(6-(Difluoromethyl)imidazo[1,2-b]pyridazin-3-yl)pyrimidin-4-yl)piperidin-3-yl)methyl)-3-methylsulfuric diamide] displayed an IC50 below 500 nM. For the same compound, the Ki on GCN2 kinase (setting [3]) is below 10 nM.
For `CS(=O)(=O)NCC1CCCN(c2cc(-c3cnc4ccc(C(F)F)nn34)cc(N3CC4(CNC4)C3)n2)C1` (stereo not drawn) [II-92, N-[[1-[6-(2,6-Diazaspiro[3.3]heptan-2-yl)-4-[6-(difluoromethyl)imidazo[1,2-b]pyridazin-3-yl]-2-pyridyl]-3-piperidyl]methyl]methanesulfonamide], in that order: 500 to 5000 nM and below 10 nM.

(Values after patent US10988477B2 (Merck Patent GmbH, priority 2018, dated 2021).)
